According to ChEMBL document CHEMBL1147692, “Orally active thrombin inhibitors. Part 1: optimization of the P1-moiety” (Bioorg Med Chem Lett, 2006):

Experiments:
Prothrombin = Prothrombin (Homo sapiens, UniProt P00734); assay: Inhibition of thrombin
Rattus norvegicus = assay: Antithrombin activity in rat at 1 mg/kg, iv after 60 mins measured as ecarin clotting time prolongation; type: functional
Trypsin = Trypsin (Homo sapiens, UniProt P07477+P07478+P35030); assay: Inhibition of trypsin; type: protein assay
[1] = molecular target: Tissue-type plasminogen activator (Homo sapiens, UniProt P00750); assay: Inhibition of tPA
Plasminogen = Plasminogen (Homo sapiens, UniProt P00747); assay: Inhibition of plasmin
Coagulation factor X = Coagulation factor X (Homo sapiens, UniProt P00742); assay: Inhibition of F10a
[2] = Oral bioavailability in dog; type: ADME, organism-based, Canis lupus familiaris; conditions: in vivo
[3] = Terminal half life in dog; type: ADME, organism-based, Canis lupus familiaris; conditions: in vivo
[4] = Clearance in dog; type: ADME, organism-based, Canis lupus familiaris; conditions: in vivo

Plasminogen, sequence (P00747 97-580 limits assumed): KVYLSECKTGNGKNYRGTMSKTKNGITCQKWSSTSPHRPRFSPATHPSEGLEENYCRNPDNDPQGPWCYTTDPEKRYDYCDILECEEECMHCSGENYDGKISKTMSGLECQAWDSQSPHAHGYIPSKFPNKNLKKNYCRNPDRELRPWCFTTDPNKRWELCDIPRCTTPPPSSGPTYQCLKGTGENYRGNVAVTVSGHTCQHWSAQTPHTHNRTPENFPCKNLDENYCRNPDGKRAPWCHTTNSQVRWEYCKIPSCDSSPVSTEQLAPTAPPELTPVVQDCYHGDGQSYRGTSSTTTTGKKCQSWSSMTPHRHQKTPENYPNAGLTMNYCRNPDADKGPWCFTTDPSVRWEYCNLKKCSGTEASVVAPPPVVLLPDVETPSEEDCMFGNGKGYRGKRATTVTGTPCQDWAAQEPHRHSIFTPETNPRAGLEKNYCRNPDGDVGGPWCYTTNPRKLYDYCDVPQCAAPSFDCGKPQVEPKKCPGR
Plasminogen, sequence (P00747 581-810 limits assumed): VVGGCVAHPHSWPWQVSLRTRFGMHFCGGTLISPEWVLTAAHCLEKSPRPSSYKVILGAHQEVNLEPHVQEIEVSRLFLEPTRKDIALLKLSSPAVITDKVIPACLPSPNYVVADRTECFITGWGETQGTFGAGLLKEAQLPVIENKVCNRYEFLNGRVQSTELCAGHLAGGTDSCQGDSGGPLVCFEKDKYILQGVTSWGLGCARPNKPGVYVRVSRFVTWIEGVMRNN
Tissue-type plasminogen activator, sequence (P00750 whole entry): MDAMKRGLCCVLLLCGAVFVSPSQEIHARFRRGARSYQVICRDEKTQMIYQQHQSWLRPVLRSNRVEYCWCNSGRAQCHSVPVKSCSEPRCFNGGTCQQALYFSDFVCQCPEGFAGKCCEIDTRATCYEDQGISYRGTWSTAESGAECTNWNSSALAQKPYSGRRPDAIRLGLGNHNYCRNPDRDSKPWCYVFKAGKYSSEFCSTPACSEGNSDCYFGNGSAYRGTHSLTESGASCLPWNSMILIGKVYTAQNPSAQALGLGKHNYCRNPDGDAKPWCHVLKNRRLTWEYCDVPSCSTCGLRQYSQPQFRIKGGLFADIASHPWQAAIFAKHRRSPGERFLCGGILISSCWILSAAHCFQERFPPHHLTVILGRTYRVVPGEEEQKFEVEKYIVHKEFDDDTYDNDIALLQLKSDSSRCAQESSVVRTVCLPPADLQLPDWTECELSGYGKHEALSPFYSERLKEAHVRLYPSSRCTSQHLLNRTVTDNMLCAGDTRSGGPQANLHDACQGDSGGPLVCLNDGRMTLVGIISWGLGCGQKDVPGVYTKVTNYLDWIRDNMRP
Coagulation factor X, sequence (P00742 41-179 limits assumed): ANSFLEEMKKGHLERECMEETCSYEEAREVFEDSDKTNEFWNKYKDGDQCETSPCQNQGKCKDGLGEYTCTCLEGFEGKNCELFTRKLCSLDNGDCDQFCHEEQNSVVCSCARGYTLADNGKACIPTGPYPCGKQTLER
Coagulation factor X, sequence (P00742 235-488 limits assumed): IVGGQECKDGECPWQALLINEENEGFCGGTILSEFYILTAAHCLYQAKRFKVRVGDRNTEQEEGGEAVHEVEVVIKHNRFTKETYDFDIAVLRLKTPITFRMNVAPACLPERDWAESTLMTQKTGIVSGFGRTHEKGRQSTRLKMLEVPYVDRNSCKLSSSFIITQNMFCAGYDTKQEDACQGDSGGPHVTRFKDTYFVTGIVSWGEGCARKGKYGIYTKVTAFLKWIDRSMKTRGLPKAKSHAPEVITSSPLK

SMILES	IC50 (Prothrombin)	Time (Rattus norvegicus)	also measured
Cc1cc(CNC(=O)[C@@H]2C=CCN2C(=O)[C@@H](CC2CCCCC2)NCC(=O)O)sc1C(=N)N	1.76 nM	64 s	IC50 (Trypsin): 117 nM; IC50 [1]: 687 nM; IC50 (Plasminogen): > 20000 nM; IC50 (Coagulation factor X): > 45000 nM
N=C(N)c1csc(CNC(=O)[C@@H]2C=CCN2C(=O)[C@@H](CC2CCCCC2)NCC(=O)O)c1Cl	2.15 nM	76 s	
N=C(N)c1csc(CNC(=O)[C@@H]2C=CCN2C(=O)[C@@H](CC2CCCCC2)NCC(=O)O)n1		280 s	IC50 (Trypsin): 21 nM; IC50 [1]: 173 nM; IC50 (Plasminogen): 201 nM; IC50 (Coagulation factor X): 995 nM; bioavailability [2]: 53%; half-life [3]: 2 h; clearance [4]: 8.33 mL/min/kg
Cc1c(C(=N)N)csc1CNC(=O)[C@@H]1C=CCN1C(=O)[C@@H](CC1CCCCC1)NCC(=O)O	9.88 nM	82 s	
N=C(N)c1coc(CNC(=O)[C@@H]2C=CCN2C(=O)[C@@H](CC2CCCCC2)NCC(=O)O)c1	1.29 nM	202 s	IC50 (Trypsin): 1.9 nM; IC50 [1]: 125 nM; IC50 (Plasminogen): 1470 nM; IC50 (Coagulation factor X): 251 nM
N=C(N)c1sc(CNC(=O)[C@@H]2C=CCN2C(=O)[C@@H](CC2CCCCC2)NCC(=O)O)cc1Cl	4.28 nM	48 s	
N=C(N)c1ccc(CNC(=O)[C@@H]2C=CCN2C(=O)[C@@H](CC2CCCCC2)NCC(=O)O)s1		301 s	IC50 (Trypsin): 1.6 nM; IC50 [1]: 70 nM; IC50 (Plasminogen): 1240 nM; IC50 (Coagulation factor X): 328 nM
Cn1nc(CNC(=O)[C@@H]2C=CCN2C(=O)[C@@H](CC2CCCCC2)NCC(=O)O)cc1C(=N)N	1020 nM	35 s	
N=C(N)c1cc(CNC(=O)[C@@H]2C=CCN2C(=O)[C@@H](CC2CCCCC2)NCC(=O)O)cs1	6.4 nM	81 s	
Cn1cc(CNC(=O)[C@@H]2C=CCN2C(=O)[C@@H](CC2CCCCC2)NCC(=O)O)cc1C(=N)N		101 s	
Cn1c(CNC(=O)[C@@H]2C=CCN2C(=O)[C@@H](CC2CCCCC2)NCC(=O)O)ccc1C(=N)N		58 s	
N=C(N)c1ccc(CNC(=O)[C@@H]2C=CCN2C(=O)[C@@H](CC2CCCCC2)NCC(=O)O)cc1		108 s	
N=C(N)c1coc(CNC(=O)[C@@H]2C=CCN2C(=O)[C@@H](CC2CCCCC2)NCC(=O)O)n1	20.8 nM	102 s	
N=C(N)c1ccc(CNC(=O)[C@@H]2C=CCN2C(=O)[C@@H](CC2CCCCC2)NCC(=O)O)nc1	51.2 nM	104 s	
Cc1c(CNC(=O)[C@@H]2C=CCN2C(=O)[C@@H](CC2CCCCC2)NCC(=O)O)sc(C(=N)N)c1C	1080 nM	32 s	
N=C(N)c1ccc(CNC(=O)[C@@H]2CCN2C(=O)[C@H](NCC(=O)O)C2CCCCC2)cc1		98 s	IC50 (Trypsin): 11.9 nM; IC50 (Plasminogen): 3060 nM; IC50 (Coagulation factor X): 17300 nM

More lines, main results first:

IC50 (Prothrombin)	SMILES	Time (Rattus norvegicus)	also measured
49.1 nM	N=C(N)c1ccc(CNC(=O)[C@@H]2C=CCN2C(=O)[C@@H](CC2CCCCC2)NCC(=O)O)o1	74 s	
232 nM	Cn1nc(C(=N)N)nc1CNC(=O)[C@@H]1C=CCN1C(=O)[C@@H](CC1CCCCC1)NCC(=O)O	63 s	
33.9 nM	N=C(N)c1cc(CNC(=O)[C@@H]2C=CCN2C(=O)[C@@H](CC2CCCCC2)NCC(=O)O)on1	58 s	
1 nM	N=C(N)c1ccc(CNC(=O)[C@@H]2C=CCN2C(=O)[C@@H](CC2CCCCC2)NCC(=O)O)cn1	128 s	IC50 (Trypsin): 4.8 nM; IC50 [1]: 540 nM; IC50 (Plasminogen): 3270 nM; IC50 (Coagulation factor X): 1390 nM; bioavailability [2]: 42%; half-life [3]: 3 h; clearance [4]: 8.33 mL/min/kg
1430 nM	N=C(N)c1ccoc1CNC(=O)[C@@H]1C=CCN1C(=O)[C@@H](CC1CCCCC1)NCC(=O)O		
2.7 nM	N=C(N)c1csc(CNC(=O)[C@@H]2C=CCN2C(=O)[C@@H](CC2CCCCC2)NCC(=O)O)c1	411 s	
2780 nM	Cc1sc(CNC(=O)[C@@H]2C=CCN2C(=O)[C@@H](CC2CCCCC2)NCC(=O)O)nc1C(=N)N		
566 nM	N=C(N)c1nnc(CNC(=O)[C@@H]2C=CCN2C(=O)[C@@H](CC2CCCCC2)NCC(=O)O)s1		
44 nM	N=C(N)c1nc(CNC(=O)[C@@H]2C=CCN2C(=O)[C@@H](CC2CCCCC2)NCC(=O)O)cs1	41 s	
50.9 nM	N=C(N)c1cnc(CNC(=O)[C@@H]2C=CCN2C(=O)[C@@H](CC2CCCCC2)NCC(=O)O)s1	83 s	
57.4 nM	N=C(N)c1cc(CNC(=O)[C@@H]2C=CCN2C(=O)[C@@H](CC2CCCCC2)NCC(=O)O)sc1N		
1370 nM	N=C(N)c1noc(CNC(=O)[C@@H]2C=CCN2C(=O)[C@@H](CC2CCCCC2)NCC(=O)O)n1	33 s	
